Test results from patent publication US20240083861A1, “HSD17B13 INHIBITORS AND USES THEREOF” (FL2022-001, Inc., priority 2020, published 2024).

target: T1, Recombinant human HSD17B13 enzyme (Homo sapiens, UniProt Q7Z5P4); test: HSD17b13 NAD(P)H-Glo biochemical assay; details: 50 uM estradiol, 1 mM NAD+, NAD(P)H-Glo luminescence; read-out: HSD17β13 IC50
T1 sequence (Q7Z5P4 20-300): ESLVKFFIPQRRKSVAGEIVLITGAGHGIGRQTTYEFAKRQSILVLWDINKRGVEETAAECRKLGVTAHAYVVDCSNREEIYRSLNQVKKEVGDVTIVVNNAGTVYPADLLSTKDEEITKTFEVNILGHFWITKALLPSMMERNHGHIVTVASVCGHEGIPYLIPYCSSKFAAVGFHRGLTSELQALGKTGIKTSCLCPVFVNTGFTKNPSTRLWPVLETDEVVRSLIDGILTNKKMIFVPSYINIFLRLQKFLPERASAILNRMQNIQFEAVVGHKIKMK
Method in brief: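 Recombinant human HSD17B13 in 20 mM Tris pH7.4 with 0.002% Tween-20 and 0.02% BSA was preincubated with inhibitor for 20 minutes at RT. The reaction ran 3 hours at 37° C with 50 uM estradiol and 1 mM NAD+ (final). NADH formed was detected by NAD(P)H-Glo luminescence after 1 hour at RT.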

Compound | IC50 [nM]
Cn1nc(-c2cc(C(F)(F)F)c(F)c(O)c2F)c2cnc(N3CCN(S(C)(=O)=O)CC3)nc21 [Compound 12.01, 2,6-Difluoro-3-(1-methyl-6-(4-(methylsulfonyl)piperazin-1-yl)-1H-pyrazolo[3,4-d]pyrimidin-3-yl)-5-(trifluoromethyl)phenol] | < 100
Cn1nc(-c2cc(C(F)(F)F)c(F)c(O)c2F)c2ccc(N3CCN(S(C)(=O)=O)CC3)nc21 [Compound 12.02, 2,6-Difluoro-3-(1-methyl-6-(4-(methylsulfonyl)piperazin-1-yl)-1H-pyrazolo[3,4-b]pyridin-3-yl)-5-(trifluoromethyl)phenol] | < 100
Cn1nc(-c2cc(C(F)(F)F)c(F)c(O)c2F)c2cnc(N3CCOCC34CC4)nc21 [Compound 12.03, 2,6-Difluoro-3-(1-methyl-6-(7-oxa-4-azaspiro[2.5]octan-4-yl)-1H-pyrazolo[3,4-d]pyrimidin-3-yl)-5-(trifluoromethyl)phenol] | < 100
CN(c1ncc2c(-c3cc(C(F)(F)F)c(F)c(O)c3F)nn(C)c2n1)C1CC1 [Compound 12.04, 3-(6-(Cyclopropyl(methyl)amino)-1-methyl-1H-pyrazolo[3,4-d]pyrimidin-3-yl)-2,6-difluoro-5-(trifluoromethyl)phenol] | < 100
Cn1nc(-c2cc(C(F)(F)F)c(F)c(O)c2F)c2cnc(N3CCN(S(C)(=O)=O)CC3)cc21 [Compound 12.05, 2,6-Difluoro-3-(1-methyl-6-(4-(methylsulfonyl)piperazin-1-yl)-1H-pyrazolo[4,3-c]pyridin-3-yl)-5-(trifluoromethyl)phenol] | < 100
Cn1nc(-c2ccc(Cl)c(O)c2F)c2cnc(N3CCN(S(C)(=O)=O)C4(CC4)C3)nc21 [Compound 12.06, 6-Chloro-2-fluoro-3-(1-methyl-6-(4-(methylsulfonyl)-4,7-diazaspiro[2.5]octan-7-yl)-1H-pyrazolo[3,4-d]pyrimidin-3-yl)phenol] | 100 to 1000
Cn1nc(-c2ccc(Cl)c(O)c2Cl)c2cnc(N3CCN(S(C)(=O)=O)C4(CC4)C3)nc21 [Compound 12.07, 2,6-Dichloro-3-(1-methyl-6-(4-(methylsulfonyl)-4,7-diazaspiro[2.5]octan-7-yl)-1H-pyrazolo[3,4-d]pyrimidin-3-yl)phenol] | 1000 to 30000
CN(c1ncc2c(-c3cc(C(F)(F)F)c(F)c(O)c3F)nn(C)c2c1Cl)C1CCOCC1 [Compound 12.08, 3-(7-Chloro-1-methyl-6-(methyl(tetrahydro-2H-pyran-4-yl)amino)-1H-pyrazolo[4,3-c]pyridin-3-yl)-2,6-difluoro-5-(trifluoromethyl)phenol] | < 100
Cn1nc(-c2cc(O)cc3ccccc23)c2cnc(N3CCN(S(C)(=O)=O)C4(CC4)C3)nc21 [Compound 12.09, 4-(1-Methyl-6-(4-(methylsulfonyl)-4,7-diazaspiro[2.5]octan-7-yl)-1H-pyrazolo[3,4-d]pyrimidin-3-yl)naphthalen-2-ol] | 1000 to 30000
CS(=O)(=O)N1CCC(c2cc3[nH]nc(-c4cc(C(F)(F)F)cc(O)c4F)c3cn2)CC1 [Compound 13, 2-Fluoro-3-(6-(1-(methylsulfonyl)piperidin-4-yl)-1H-pyrazolo[4,3-c]pyridin-3-yl)-5-(trifluoromethyl)phenol] | 100 to 1000
CS(=O)(=O)N1CC=C(c2ccc3c(-c4cc(O)c(F)c(C(F)(F)F)c4)n[nH]c3c2)CC1 [Compound 14, 2-Fluoro-5-(6-(1-(methylsulfonyl)-1,2,3,6-tetrahydropyridin-4-yl)-1H-indazol-3-yl)-3-(trifluoromethyl)phenol] | 100 to 1000
CS(=O)(=O)N1CCC(c2ccc3c(-c4cc(O)c(F)c(C(F)(F)F)c4)n[nH]c3c2)CC1 [Compound 15, 2-Fluoro-5-(6-(1-(methylsulfonyl)piperidin-4-yl)-1H-indazol-3-yl)-3-(trifluoromethyl)phenol] | 100 to 1000
Oc1cc(-c2n[nH]c3cc(-c4ccc(O)c(Cl)c4)ccc23)ccc1F [Compound 16, 2-Chloro-4-(3-(4-fluoro-3-hydroxyphenyl)-1H-indazol-6-yl)phenol] | 100 to 1000
Cn1nc(-c2ccc(F)c(O)c2)c2ccc(-c3ccc(O)c(Cl)c3)cc21 [Compound 17, 2-Chloro-4-(3-(4-fluoro-3-hydroxyphenyl)-1-methyl-1H-indazol-6-yl)phenol] | 100 to 1000
Cn1nc(-c2cc(C(F)(F)F)c(F)c(O)c2F)c2cnc(N3CCOC4(CCC4)C3)nc21 [Compound 18, 2,6-Difluoro-3-(1-methyl-6-(5-oxa-8-azaspiro[3.5]nonan-8-yl)-1H-pyrazolo[3,4-d]pyrimidin-3-yl)-5-(trifluoromethyl)phenol] | < 100

Other lines, results leading:

IC50 [nM] | Compound
100 to 1000 | Cn1nc(-c2cc(C(F)(F)F)cc(O)c2F)c2cnc(C3CCN(S(C)(=O)=O)CC3)cc21 [Compound 13.01, 2-Fluoro-3-(1-methyl-6-(1-(methylsulfonyl)piperidin-4-yl)-1H-pyrazolo[4,3-c]pyridin-3-yl)-5-(trifluoromethyl)phenol]
< 100 | Cn1nc(-c2cc(O)c(F)c(C(F)(F)F)c2)c2ccc(C3=CCN(S(C)(=O)=O)CC3)cc21 [Compound 14.01, 2-Fluoro-5-(1-methyl-6-(1-(methylsulfonyl)-1,2,3,6-tetrahydropyridin-4-y1)-1H-indazol-3-y1)-3-(trifluoromethyl)phenol]
< 100 | Cc1cc(-c2n[nH]c3cc(C4=CCN(S(C)(=O)=O)CC4)ccc23)c(F)c(O)c1F [Compound 14.02, 2,6-Difluoro-3-methyl-5-(6-(1-(methylsulfonyl)-1,2,3,6-tetrahydropyridin-4-y1)-1H-indazol-3-y1)phenol]
100 to 1000 | CS(=O)(=O)N1CC=C(c2cc3[nH]nc(-c4cc(O)c(F)c(C(F)(F)F)c4)c3cn2)CC1 [Compound 14.03, 2-Fluoro-5-(6-(1-(methylsulfony1)-1,2,3,6-tetrahydropyridin-4-yl)-1H-pyrazolo[4,3-c]pyridin-3-yl)-3-(trifluoromethyl)phenol]
< 100 | Cc1cc(-c2n[nH]c3cc(C4CCN(S(C)(=O)=O)CC4)ccc23)c(F)c(O)c1F [Compound 15.01, 2,6-Difluoro-3-methyl-5-(6-(1-(methylsulfony1)piperidin-4-y1)-1H-indazol-3-yl)phenol]
100 to 1000 | Cn1nc(-c2cc(O)c(F)c(C(F)(F)F)c2)c2ccc(C3CCN(S(C)(=O)=O)CC3)cc21 [Compound 15.02, 2-Fluoro-5-(1-methyl-6-(1-(methylsulfonyl)piperidin-4-y1)-1H-indazol-3-yl)-3-(trifluoromethyl)phenol]
100 to 1000 | Cn1nc(-c2cc(C(F)(F)F)c(F)c(O)c2F)c2cnc(C3CCN(S(C)(=O)=O)CC3)cc21 [Compound 15.03, 2,6-Difluoro-3-(1-methyl-6-(1-(methylsulfony1)piperidin-4-y1)-1H-pyrazolo[4,3-c]pyridin-3-y1)-5-(trifluoromethyl)phenol]
< 100 | Cn1nc(-c2cc(C(F)(F)F)c(F)c(O)c2F)c2cnc(C3CCN(S(C)(=O)=O)CC3)nc21 [Compound 15.04, 2,6-Difluoro-3-(1-methyl-6-(1-(methylsulfony1)piperidin-4-y1)-1H-pyrazolo[3,4-d]pyrimidin-3-yl)-5-(trifluoromethyl)phenol]

same assay, conditions: at 10 uM compound; read-out: HSD17β13 % inhibition at 10 uM

inhibition at 10 µM [%] | Compound
< 20 | Cn1nc(-c2cccc(O)c2)c2cnc(N3CCN(S(C)(=O)=O)C4(CC4)C3)nc21 [Compound 12.10, 3-(1-Methyl-6-(4-(methylsulfonyl)-4,7-diazaspiro[2.5]octan-7-yl)-1H-pyrazolo[3,4-d]pyrimidin-3-yl)phenol]
